Patent US5635527A, “Carboxylic acid compound having condensed ring, salt thereof and pharmaceutical use thereof” (The Green Cross Corporation, priority 1994, dated 1997)
pIC50: −log10 of the molar value.

Test system: human platelets
Assay: suppressive activity on ADP aggregation of human platelets
Assay type: cell-based
Settings: platelet rich plasma, ADP 1-5 μM, compound added 2 minutes before ADP, read-out: Suppression of platelet aggregation (IC50)
Experimental: Determination of suppressive activity on ADP aggregation of human platelets
Platelet rich plasma was prepared from the blood taken from healthy humans by centrifugation in the presence of 0.38% sodium citrate, and used for the determination.
Two minutes after the test compounds shown in Table 1 were added to the above-mentioned platelet rich plasma, ADP (adenosine-5'-diphosphate) (1-5 μM) having a concentration at which primary aggregation alone is observed was added, and the suppression of ADP aggregation by the compounds was evaluated. The percent suppression was determined by varying the concentration of the compounds and the concentration of the compound at which the aggregation was suppressed by 50% (IC50) was calculated, which was taken as the activity of the compound.

| Compound | pIC50 |
| --- | --- |
| N=C(N)c1cnc2oc(C(=O)N[C@H]3CC[C@H](OCC(=O)O)CC3)cc2c1 [Compound 255, trans-[4-(5-Amidinofuro[2,3-b]pyridine-2-carbonylamino)-cyclohexyloxy]acetic acid] | 7.70 |
| N=C(N)c1cnc2oc(C(=O)N[C@H]3CC[C@H](CCC(=O)O)CC3)cc2c1 [Compound 261, trans-3-[4-(5-Amidinofuro[2,3-b]pyridine-2-carbonylamino)cyclohexyl]propionic acid] | 8.00 |
